What is called IC50 is the concentration that gives 50% inhibition.

The values that follow come from PMC11946101, “Structural Insights into Salinosporamide a Mediated Inhibition of the Human 20S Proteasome” (Molecules, 2025).

Common to all, as to assay type: biochemical
In assay [1] the target is T1, human 20S proteasome subunit β5 (Homo sapiens, UniProt P28074).
T1 construct: gene PSMB5; human constitutive 20S proteasome (h20S), whole complex; catalytic N-terminal Thr1; with other subunits of the 20S proteasome (α1–α7, β1–β7)
The assay can be described thus: cryo-EM structure at […] Å; IC50 with Suc-LLVY-amc.

The subject of assay [2] is T2, Trichomonas vaginalis 20S proteasome (Tv20S) subunit β1.
T2 construct: Tv20S, whole complex; with other subunits of the Tv20S proteasome
In words: IC50 for the individual proteolytic subunit (Figure S5).

The subject of assay [3] is T3, Trichomonas vaginalis 20S proteasome (Tv20S) subunit β5.
T3 construct: Tv20S, whole complex; with other subunits of the Tv20S proteasome
Described as above.

Assay [4] addresses T4, human 20S proteasome subunit β2 (Homo sapiens, UniProt Q99436).
T4 construct: gene PSMB7; human constitutive 20S proteasome (h20S), whole complex; catalytic N-terminal Thr1; with other subunits of the 20S proteasome (α1–α7, β1–β7)
The assay can be described thus: cryo-EM structure at […] Å; IC50 with Z-VLR-amc.

The target in assay [5] is T5, human 20S proteasome subunit β1 (Homo sapiens, UniProt P28072).
T5 construct: gene PSMB6; human constitutive 20S proteasome (h20S), whole complex; catalytic N-terminal Thr1; with other subunits of the 20S proteasome (α1–α7, β1–β7)
The assay can be described thus: cryo-EM structure at […] Å; IC50 with Z-LLE-amc.

T1 sequence (Q06323 whole entry): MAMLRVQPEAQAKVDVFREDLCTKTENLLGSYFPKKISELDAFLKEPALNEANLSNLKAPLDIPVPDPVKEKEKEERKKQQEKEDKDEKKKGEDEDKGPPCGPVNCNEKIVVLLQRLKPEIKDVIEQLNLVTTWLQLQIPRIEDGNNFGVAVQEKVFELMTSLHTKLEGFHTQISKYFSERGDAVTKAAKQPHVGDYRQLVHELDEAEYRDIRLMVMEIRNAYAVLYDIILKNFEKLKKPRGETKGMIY
T1 sequence (P28074 60-263): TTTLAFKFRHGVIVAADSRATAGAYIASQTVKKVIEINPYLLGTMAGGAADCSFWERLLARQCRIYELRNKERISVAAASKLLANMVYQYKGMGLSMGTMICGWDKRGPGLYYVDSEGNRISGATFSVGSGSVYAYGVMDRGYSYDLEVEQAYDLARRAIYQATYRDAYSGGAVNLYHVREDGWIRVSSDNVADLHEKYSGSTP
T4 sequence (Q06323 whole entry): as the sequence (Q06323 whole entry) above
T4 sequence (Q99436 44-277): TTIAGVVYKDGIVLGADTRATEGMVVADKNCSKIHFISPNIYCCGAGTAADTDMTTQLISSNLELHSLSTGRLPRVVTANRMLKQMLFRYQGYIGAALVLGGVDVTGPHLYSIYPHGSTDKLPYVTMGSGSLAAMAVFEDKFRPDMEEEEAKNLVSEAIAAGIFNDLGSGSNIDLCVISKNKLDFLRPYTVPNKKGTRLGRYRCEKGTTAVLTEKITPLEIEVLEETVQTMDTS
T5 sequence (Q06323 whole entry): as the sequence (Q06323 whole entry) above
T5 sequence (P28072 35-239): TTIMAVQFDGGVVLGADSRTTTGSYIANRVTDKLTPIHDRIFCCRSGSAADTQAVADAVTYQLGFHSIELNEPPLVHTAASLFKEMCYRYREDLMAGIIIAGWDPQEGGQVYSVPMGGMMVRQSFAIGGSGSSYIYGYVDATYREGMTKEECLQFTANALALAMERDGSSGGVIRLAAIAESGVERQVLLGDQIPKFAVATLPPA

On to `C[C@@]12OC(=O)[C@]1([C@@H](O)[C@@H]1C=CCCC1)NC(=O)[C@@H]2CCCl` [MZB, Marizomib], for which the IC50 in assay [1] stood at 0.0185 µM; in assay [2], 0.244 ± 0.0722 µM; in assay [3], 0.0039 ± 0.0002 µM; in assay [4] it was 0.326 µM; in assay [5], 0.597 µM.
